According to ChEMBL document CHEMBL1156785, “Discovery of 4-[(2S)-2-{[4-(4-chlorophenoxy)phenoxy]methyl}-1-pyrrolidinyl]butanoic acid (DG-051) as a novel leukotriene A4 hydrolase inhibitor of leukotriene B4 biosynthesis” (J Med Chem, 2010):

Columns and labels:
[1] = molecular target: Aminopeptidase N (Homo sapiens) (UniProt P15144); test: Inhibition of APN at 10 uM
[2] = molecular target: Endoplasmic reticulum aminopeptidase 2 (Homo sapiens) (UniProt Q6P179); test: Inhibition of LRAP at 10 uM
[3] = molecular target: Endoplasmic reticulum aminopeptidase 1 (Homo sapiens) (UniProt Q9NZ08); test: Inhibition of PILS at 10 uM
Sequence of Endoplasmic reticulum aminopeptidase 1 (Homo sapiens) (Q9NZ08 whole entry): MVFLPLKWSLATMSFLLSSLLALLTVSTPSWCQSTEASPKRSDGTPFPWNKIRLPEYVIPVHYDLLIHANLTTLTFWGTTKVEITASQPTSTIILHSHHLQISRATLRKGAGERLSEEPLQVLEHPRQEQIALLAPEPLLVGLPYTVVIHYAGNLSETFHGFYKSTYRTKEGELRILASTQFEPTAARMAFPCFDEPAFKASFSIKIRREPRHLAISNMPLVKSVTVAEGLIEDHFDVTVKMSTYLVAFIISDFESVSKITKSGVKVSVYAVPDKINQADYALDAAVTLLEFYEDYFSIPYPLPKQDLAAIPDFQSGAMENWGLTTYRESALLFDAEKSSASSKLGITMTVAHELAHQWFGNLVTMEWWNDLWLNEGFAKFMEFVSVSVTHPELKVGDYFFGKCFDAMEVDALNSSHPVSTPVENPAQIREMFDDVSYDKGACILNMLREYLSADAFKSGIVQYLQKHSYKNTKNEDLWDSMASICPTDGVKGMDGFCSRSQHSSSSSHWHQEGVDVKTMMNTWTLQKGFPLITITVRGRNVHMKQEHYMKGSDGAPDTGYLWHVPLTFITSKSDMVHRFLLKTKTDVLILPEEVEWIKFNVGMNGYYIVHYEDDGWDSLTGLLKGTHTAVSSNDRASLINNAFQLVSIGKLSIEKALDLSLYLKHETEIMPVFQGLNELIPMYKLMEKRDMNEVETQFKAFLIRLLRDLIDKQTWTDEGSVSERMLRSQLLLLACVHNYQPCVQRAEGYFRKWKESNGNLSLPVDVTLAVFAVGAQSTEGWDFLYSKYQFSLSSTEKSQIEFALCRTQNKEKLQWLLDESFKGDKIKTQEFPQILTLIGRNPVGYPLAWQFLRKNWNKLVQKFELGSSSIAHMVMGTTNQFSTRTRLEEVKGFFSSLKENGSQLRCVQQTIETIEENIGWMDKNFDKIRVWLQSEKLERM

[4] = molecular target: Glutamyl aminopeptidase (Homo sapiens) (UniProt Q07075); test: Inhibition of APA at 10 uM
[5] = molecular target: Voltage-gated inwardly rectifying potassium channel KCNH2 (Homo sapiens, UniProt Q12809); test: Inhibition of human ERG channel
Sequence of Voltage-gated inwardly rectifying potassium channel KCNH2 (Q12809 whole entry): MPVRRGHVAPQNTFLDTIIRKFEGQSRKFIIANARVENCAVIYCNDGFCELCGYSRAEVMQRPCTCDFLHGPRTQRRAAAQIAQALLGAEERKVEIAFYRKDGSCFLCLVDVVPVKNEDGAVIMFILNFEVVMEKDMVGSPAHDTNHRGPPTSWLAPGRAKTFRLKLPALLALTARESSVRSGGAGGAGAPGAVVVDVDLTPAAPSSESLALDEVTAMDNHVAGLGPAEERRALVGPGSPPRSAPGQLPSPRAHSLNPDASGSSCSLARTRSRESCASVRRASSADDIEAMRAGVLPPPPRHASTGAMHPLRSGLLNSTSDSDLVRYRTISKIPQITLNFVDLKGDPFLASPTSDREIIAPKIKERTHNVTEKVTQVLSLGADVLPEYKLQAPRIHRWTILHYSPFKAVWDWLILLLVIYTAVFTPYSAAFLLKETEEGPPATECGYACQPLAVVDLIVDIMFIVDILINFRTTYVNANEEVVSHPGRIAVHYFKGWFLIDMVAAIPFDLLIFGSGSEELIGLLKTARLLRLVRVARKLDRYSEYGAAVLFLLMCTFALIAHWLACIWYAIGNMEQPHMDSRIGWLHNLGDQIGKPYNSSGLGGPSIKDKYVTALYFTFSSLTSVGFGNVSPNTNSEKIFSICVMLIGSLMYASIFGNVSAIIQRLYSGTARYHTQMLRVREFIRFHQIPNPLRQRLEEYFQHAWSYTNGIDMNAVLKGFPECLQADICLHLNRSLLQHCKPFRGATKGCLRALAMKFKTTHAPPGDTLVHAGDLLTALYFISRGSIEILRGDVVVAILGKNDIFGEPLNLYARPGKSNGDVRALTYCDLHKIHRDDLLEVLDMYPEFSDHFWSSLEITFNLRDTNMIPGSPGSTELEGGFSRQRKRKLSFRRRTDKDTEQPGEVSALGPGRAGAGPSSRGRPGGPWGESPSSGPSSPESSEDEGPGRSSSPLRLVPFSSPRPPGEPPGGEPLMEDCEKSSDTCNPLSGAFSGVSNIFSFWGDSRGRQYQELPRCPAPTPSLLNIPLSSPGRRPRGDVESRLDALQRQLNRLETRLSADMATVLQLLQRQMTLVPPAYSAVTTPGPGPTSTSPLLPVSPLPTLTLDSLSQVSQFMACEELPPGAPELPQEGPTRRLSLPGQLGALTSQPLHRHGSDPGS

[6] = molecular target: T1, CYP1A2 (Homo sapiens, UniProt P05177); test: Inhibition of human CYP1A2 at 10 uM; format: ADME
T1 sequence (P05177 whole entry): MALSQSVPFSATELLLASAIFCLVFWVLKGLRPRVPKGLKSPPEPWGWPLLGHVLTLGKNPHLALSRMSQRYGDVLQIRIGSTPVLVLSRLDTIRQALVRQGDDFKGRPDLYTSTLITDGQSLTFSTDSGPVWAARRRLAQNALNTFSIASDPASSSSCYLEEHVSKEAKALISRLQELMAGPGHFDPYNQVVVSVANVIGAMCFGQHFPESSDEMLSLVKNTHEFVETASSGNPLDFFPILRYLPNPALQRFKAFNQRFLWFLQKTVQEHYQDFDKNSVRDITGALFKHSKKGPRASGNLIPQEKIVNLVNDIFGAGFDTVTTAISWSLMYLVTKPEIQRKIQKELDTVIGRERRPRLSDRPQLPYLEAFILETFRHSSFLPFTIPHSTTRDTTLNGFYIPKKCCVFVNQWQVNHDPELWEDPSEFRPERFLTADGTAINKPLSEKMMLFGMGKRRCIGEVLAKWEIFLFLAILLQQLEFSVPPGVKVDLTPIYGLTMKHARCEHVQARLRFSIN

[7] = molecular target: CYP2C9 (Homo sapiens, UniProt P11712); test: Inhibition of human CYP2C9 at 10 uM; format: ADME
[8] = molecular target: CYP2C19 (Homo sapiens, UniProt P33261); test: Inhibition of human CYP2C19 at 10 uM; format: ADME
Sequence of CYP2C19 (P33261 whole entry): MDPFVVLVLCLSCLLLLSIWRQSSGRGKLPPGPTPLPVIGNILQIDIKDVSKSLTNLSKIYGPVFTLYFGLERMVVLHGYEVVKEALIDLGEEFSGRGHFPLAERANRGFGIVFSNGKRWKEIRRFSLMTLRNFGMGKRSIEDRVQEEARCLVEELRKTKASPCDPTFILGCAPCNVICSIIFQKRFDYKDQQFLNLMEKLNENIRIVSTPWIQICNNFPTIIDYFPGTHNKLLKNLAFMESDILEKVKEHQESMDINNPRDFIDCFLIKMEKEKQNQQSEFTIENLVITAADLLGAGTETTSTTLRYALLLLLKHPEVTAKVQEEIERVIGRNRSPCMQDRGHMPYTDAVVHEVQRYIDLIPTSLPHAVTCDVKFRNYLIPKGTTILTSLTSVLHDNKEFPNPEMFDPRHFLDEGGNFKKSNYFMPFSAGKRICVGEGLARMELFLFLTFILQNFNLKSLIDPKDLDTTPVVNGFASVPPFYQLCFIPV

[9] = molecular target: Cytochrome P450 2D6 (Homo sapiens, UniProt P10635); test: Inhibition of CYP2D6; format: ADME
Sequence of Cytochrome P450 2D6 (P10635 whole entry): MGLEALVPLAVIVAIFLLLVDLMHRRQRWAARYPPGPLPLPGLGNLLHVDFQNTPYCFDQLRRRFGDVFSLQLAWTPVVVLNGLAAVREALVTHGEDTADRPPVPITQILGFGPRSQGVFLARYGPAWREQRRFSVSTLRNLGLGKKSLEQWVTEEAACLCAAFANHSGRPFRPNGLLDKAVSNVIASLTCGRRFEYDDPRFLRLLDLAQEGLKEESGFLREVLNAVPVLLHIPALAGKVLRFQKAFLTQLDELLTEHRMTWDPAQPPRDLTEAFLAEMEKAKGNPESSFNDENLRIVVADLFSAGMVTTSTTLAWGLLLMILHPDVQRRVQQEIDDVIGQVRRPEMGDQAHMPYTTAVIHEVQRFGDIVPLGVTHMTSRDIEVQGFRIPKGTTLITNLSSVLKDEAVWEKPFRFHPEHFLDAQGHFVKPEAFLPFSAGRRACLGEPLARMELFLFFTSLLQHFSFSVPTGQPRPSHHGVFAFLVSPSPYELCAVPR

[10] = molecular target: CYP3A4 (Homo sapiens, UniProt P08684); test: Inhibition of human CYP3A4 at 10 uM; format: ADME
[11] = Half life in Sprague-Dawley rat at 10 mg/kg, po; format: ADME, organism-based; parameters: dose 10 mg/kg, route oral; conditions: in vivo
[12] = Oral bioavailability in Sprague-Dawley rat at 10 mg/kg; format: ADME, organism-based; conditions: in vivo
[13] = Volume of distribution in Sprague-Dawley rat at 10 mg/kg, iv; format: ADME, organism-based; parameters: dose 10 mg/kg, route intravenous; conditions: in vivo
[14] = Clearance in Sprague-Dawley rat at 10 mg/kg, iv; format: ADME, organism-based; parameters: dose 10 mg/kg, route intravenous; conditions: in vivo
[15] = Half life in dog at 10 mg/kg, po; format: ADME, organism-based, Canis lupus familiaris; parameters: dose 10 mg/kg, route oral; conditions: in vivo
[16] = Cmax in dog at 10 mg/kg, po; format: ADME, organism-based, Canis lupus familiaris; parameters: dose 10 mg/kg, route oral; conditions: in vivo
[17] = AUC (0 to infinity) in dog at 10 mg/kg, po; format: ADME, organism-based, Canis lupus familiaris; parameters: time infinity, dose 10 mg/kg, route oral; conditions: plasma
[18] = Volume of distribution in dog at 10 mg/kg, iv; format: ADME, organism-based, Canis lupus familiaris; parameters: dose 10 mg/kg, route intravenous; conditions: in vivo
[19] = Clearance in dog at 10 mg/kg, iv; format: ADME, organism-based, Canis lupus familiaris; parameters: dose 10 mg/kg, route intravenous; conditions: in vivo
[20] = Half life in monkey at 10 mg/kg, po; format: ADME, organism-based, Macaca mulatta; parameters: dose 10 mg/kg, route oral; conditions: rhesus monkey, in vivo
[21] = Cmax in monkey at 10 mg/kg, po; format: ADME, organism-based, Macaca mulatta; parameters: dose 10 mg/kg, route oral; conditions: rhesus monkey, in vivo
[22] = AUC (0 to infinity) in monkey at 10 mg/kg, po; format: ADME, organism-based, Macaca mulatta; parameters: time infinity, dose 10 mg/kg, route oral; conditions: rhesus monkey, plasma
[23] = test system: Rhesus monkey; test: Oral bioavailability in monkey at 10 mg/kg; format: ADME, organism-based, Macaca mulatta; conditions: in vivo
[24] = Volume of distribution in monkey at 10 mg/kg, iv; format: ADME, organism-based, Macaca mulatta; parameters: dose 10 mg/kg, route intravenous; conditions: rhesus monkey, in vivo
[25] = Clearance in monkey at 10 mg/kg, iv; format: ADME, organism-based, Macaca mulatta; parameters: dose 10 mg/kg, route intravenous; conditions: rhesus monkey, in vivo
[26] = Cmax in Sprague-Dawley rat at 10 mg/kg, po; format: ADME, organism-based; parameters: dose 10 mg/kg, route oral; conditions: in vivo
[27] = AUC (0 to infinity) in Sprague-Dawley rat at 10 mg/kg, po; format: ADME, organism-based; parameters: time infinity, dose 10 mg/kg, route oral; conditions: plasma
[28] = Metabolic stability in rat liver microsomes assessed as compound remaining after 30 mins; format: ADME, Microsome; conditions: read-out: Stability
[29] = Aqueous solubility at pH 6.18; format: physicochemical; conditions: buffer
[30] = molecular target: Xaa-Pro aminopeptidase 1 (Homo sapiens) (UniProt Q9NQW7); test: Inhibition of APP1 at 10 uM
Sequence of Xaa-Pro aminopeptidase 1 (Homo sapiens) (Q9NQW7 whole entry, looked up): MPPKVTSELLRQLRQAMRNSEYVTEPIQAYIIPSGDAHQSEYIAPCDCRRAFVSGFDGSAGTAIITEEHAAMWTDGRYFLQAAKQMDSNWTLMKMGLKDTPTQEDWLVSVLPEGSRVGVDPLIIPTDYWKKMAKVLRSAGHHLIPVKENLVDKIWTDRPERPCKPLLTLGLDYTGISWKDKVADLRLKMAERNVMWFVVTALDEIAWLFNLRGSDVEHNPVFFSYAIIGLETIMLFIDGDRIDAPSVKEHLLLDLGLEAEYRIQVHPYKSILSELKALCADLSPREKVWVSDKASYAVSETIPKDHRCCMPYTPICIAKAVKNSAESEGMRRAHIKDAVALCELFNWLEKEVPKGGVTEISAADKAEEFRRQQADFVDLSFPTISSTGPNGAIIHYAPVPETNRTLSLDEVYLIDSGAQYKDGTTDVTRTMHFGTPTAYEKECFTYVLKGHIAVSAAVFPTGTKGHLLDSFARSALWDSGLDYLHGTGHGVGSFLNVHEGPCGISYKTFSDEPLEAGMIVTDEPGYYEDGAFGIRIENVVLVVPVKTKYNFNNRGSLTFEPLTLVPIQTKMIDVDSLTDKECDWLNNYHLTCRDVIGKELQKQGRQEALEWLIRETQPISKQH

[31] = molecular target: T2, Leukotriene A-4 hydrolase (Homo sapiens, UniProt P09960)
T2 sequence (P09960 whole entry): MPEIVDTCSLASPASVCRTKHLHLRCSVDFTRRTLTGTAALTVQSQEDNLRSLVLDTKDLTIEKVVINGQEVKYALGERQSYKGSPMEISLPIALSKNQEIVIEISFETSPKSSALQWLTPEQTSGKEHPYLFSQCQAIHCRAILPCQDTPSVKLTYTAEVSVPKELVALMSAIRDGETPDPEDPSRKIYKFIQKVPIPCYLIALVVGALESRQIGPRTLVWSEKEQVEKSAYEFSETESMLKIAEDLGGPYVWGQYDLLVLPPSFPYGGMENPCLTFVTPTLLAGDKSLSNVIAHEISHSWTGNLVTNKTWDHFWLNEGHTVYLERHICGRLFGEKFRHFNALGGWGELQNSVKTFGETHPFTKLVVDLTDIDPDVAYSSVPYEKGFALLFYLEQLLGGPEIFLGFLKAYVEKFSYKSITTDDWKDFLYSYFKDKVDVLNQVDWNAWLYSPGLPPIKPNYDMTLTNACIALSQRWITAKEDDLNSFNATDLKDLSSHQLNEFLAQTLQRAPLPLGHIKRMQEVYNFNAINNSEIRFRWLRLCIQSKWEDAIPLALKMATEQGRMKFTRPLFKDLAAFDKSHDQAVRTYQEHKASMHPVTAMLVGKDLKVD
Description: Inhibition of human recombinant LTA4H hydrolysis assessed as inhibition of LTB4 formation by LC-MS/MS

[32] = Cmax in Sprague-Dawley rat at 10 mg/kg, iv; format: ADME, organism-based; parameters: dose 10 mg/kg, route intravenous; conditions: in vivo
[33] = test system: Rattus norvegicus; test: AUC (0 to infinity) in Sprague-Dawley rat at 10 mg/kg, iv; format: ADME, organism-based, Plasma; parameters: time infinity, dose 10 mg/kg, route intravenous; conditions: in vivo
[34] = Half life in mouse at 10 mg/kg, po; format: ADME, organism-based; parameters: dose 10 mg/kg, route oral; conditions: in vivo
[35] = Cmax in mouse at 10 mg/kg, po; format: ADME, organism-based; parameters: dose 10 mg/kg, route oral; conditions: in vivo
[36] = AUC (0 to infinity) in mouse at 10 mg/kg, po; format: ADME, organism-based; parameters: time infinity, dose 10 mg/kg, route oral; conditions: plasma
[37] = Oral bioavailability in mouse at 10 mg/kg; format: ADME, organism-based; conditions: in vivo
[38] = Volume of distribution in mouse at 10 mg/kg, iv; format: ADME, organism-based; parameters: dose 10 mg/kg, route intravenous; conditions: in vivo
[39] = Clearance in mouse at 10 mg/kg, iv; format: ADME, organism-based; parameters: dose 10 mg/kg, route intravenous; conditions: in vivo
[40] = molecular target: T2, Leukotriene A-4 hydrolase; remark: listed apart in the source
Description: Inhibition of human LTA4H hydrolysis assessed as inhibition of Ca2+ ionophore-stimulated LTB4 formation in human whole blood by ELISA

Sequence of Endoplasmic reticulum aminopeptidase 2 (Homo sapiens) (Q6P179 whole entry): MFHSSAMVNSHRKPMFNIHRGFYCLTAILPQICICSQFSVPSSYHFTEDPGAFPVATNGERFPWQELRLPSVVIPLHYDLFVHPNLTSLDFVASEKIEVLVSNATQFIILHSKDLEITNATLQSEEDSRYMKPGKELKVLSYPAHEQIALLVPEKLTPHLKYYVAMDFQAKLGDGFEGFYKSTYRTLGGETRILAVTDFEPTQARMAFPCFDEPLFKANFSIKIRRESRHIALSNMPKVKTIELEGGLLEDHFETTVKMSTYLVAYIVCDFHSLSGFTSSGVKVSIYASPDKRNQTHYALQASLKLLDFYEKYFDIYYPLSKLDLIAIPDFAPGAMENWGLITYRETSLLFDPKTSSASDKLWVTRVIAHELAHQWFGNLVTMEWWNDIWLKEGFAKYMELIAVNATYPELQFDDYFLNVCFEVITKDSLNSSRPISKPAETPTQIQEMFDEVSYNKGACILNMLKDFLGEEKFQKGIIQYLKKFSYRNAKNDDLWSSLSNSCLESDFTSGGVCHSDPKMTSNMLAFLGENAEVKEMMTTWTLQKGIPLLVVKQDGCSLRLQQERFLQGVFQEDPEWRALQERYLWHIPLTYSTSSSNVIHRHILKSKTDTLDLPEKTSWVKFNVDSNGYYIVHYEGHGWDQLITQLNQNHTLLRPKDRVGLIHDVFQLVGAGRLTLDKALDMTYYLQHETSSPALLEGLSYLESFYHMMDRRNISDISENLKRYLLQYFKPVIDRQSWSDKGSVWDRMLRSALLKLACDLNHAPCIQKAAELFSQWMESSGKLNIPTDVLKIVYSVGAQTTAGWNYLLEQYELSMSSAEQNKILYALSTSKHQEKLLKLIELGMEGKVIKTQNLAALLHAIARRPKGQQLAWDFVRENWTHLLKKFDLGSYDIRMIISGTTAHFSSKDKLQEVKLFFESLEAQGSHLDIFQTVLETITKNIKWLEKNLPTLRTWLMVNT

O=C(O)CCCN1CCC[C@H]1COc1ccc(Oc2ccc(Cl)cc2)cc1
inhibition [1]: > 50%
inhibition [2]: > 50%
inhibition [3]: > 50%
inhibition [4]: > 50%
inhibition (INH) [5]: > 50%
inhibition at 10 µM [6]: < 50%
inhibition at 10 µM [7]: < 50%
inhibition at 10 µM [8]: < 50%
inhibition (INH) [9]: < 50%
inhibition at 10 µM [10]: < 50%
half-life [11]: 2.57 h
bioavailability [12]: 87%
Vd [13]: 2.35 L/kg
clearance [14]: 11 mL/min/kg
half-life [15]: 4.02 h
Cmax [16]: 19.3 µM
AUC(0-inf) [17]: 56000 ng·h/mL
Vd [18]: 1.56 L/kg
clearance [19]: 7.6 mL/min/kg
half-life [20]: 5.54 h
Cmax [21]: 18.9 µM
AUC(0-inf) [22]: 52400 ng·h/mL
F [23]: 186%
Vd [24]: 2.07 L/kg
clearance [25]: 6 mL/min/kg
Cmax [26]: 4.8 µM
AUC(0-inf) [27]: 13000 ng·h/mL
remaining at 0.5 h [28]: 95.2%
solubility [29]: > 30 mg/mL
inhibition [30]: > 50%

Ic1ccc(Oc2ccc(N3CCNCC3)cc2)cc1
IC50 [31]: 340 nM

c1ccc(Cc2ccc(OC[C@H]3CCCN3)cc2)cc1
half-life [11]: 0.67 h
Cmax [32]: 1.46 µM
AUC [33]: 471 ng·h/mL
Vd [13]: 6.12 L/kg
remaining at 0.5 h [28]: 10.5%

Clc1ccc(Oc2ccc(OC[C@H]3CCCN3)cc2)cc1
half-life [34]: 3.59 h
Cmax [35]: 1.02 µM
AUC(0-inf) [36]: 2360 ng·h/mL
bioavailability [37]: 85%
Vd [38]: 6.32 L/kg
clearance [39]: 61 mL/min/kg
remaining at 0.5 h [28]: 86.6%
IC50 [31]: 30 nM
IC50 [40]: 533 nM

c1ccc(Cc2ccc(OCCc3ccncc3)cc2)cc1
IC50 [31]: 8700 nM
